How the values were obtained:
[1] = target: soluble human BACE1 catalytic domain (Homo sapiens, UniProt P56817); experiment: BACE1 HTRF FRET Assay; assay type: biochemical; conditions: Ki calculated from IC50 using the Cheng-Prusoff equation; QSY7-APPswe-Eu substrate 200 nM final, pH 5.0, 30° C
Description: A homogeneous time-resolved FRET assay can be used to determine IC50 values for inhibitors of the soluble human BACE1 catalytic domain. […] This substrate contains an N-terminal QSY7 moiety that serves as a quencher of the C-terminal Europium fluorophore (620nm Em). […] Inhibition of BACE1 cleavage of the QSY7-APP^swe-Eu substrate by inhibitors is manifested as a suppression of 620 nm fluorescence. […] The reactions are incubated at 30° C for 1.5 hours. The 620nm fluorescence is then read on a Rubystar HTRF plate reader (BMG Labtechnologies) using a 50 millisecond delay followed by a 400 millisecond acquisition time window. Inhibitor IC50 values are derived from non-linear regression analysis of concentration response curves.

[2] = target: T1, purified human autoBACE-2 (Homo sapiens, UniProt Q9Y5Z0); experiment: BACE-2 Assay (BACE-HTRF assay); assay type: biochemical; conditions: Ki calculated from IC50 using the Cheng-Prusoff equation; QSY7-EISEVNLDAEFC-Eu-amide substrate 200 nM final, pH 5.0, 30°C; read-out: BACE2 Ki
T1 sequence (Q9Y5Z0 63-473 limits assumed): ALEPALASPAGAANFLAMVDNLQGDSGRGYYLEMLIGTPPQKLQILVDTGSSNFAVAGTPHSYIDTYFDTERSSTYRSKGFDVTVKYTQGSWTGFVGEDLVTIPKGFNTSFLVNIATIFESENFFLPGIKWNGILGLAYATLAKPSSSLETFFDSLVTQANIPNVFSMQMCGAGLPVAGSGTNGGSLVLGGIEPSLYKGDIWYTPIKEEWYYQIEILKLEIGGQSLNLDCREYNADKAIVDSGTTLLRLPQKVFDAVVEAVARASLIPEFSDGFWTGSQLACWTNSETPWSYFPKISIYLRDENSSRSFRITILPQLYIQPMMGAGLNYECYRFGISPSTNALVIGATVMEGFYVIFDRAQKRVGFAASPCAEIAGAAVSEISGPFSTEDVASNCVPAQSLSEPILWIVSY
Description: Inhibitor IC50's at purified human autoBACE-2 are determined in a time-resolved endpoint proteolysis assay that measures hydrolysis of the QSY7-[…]-Eu-amide FRET peptide substrate (BACE-HTRF assay). […] Inhibitor compounds, prepared at 3x the desired final concentration in 1x BACE assay buffer (20 mM sodium acetate pH 5.0,10% glycerol, 0.1% Brij-35) supplemented with 7.5% DMSO are pre-incubated with an equal volume of autoBACE-2 enzyme diluted in 1x BACE assay buffer (final enzyme concentration 1 nM) in black 384-well NUNC plates for 30 minutes at 30°C. […] DMSO is present at 5% final concentration in the assay. Following laser excitation of sample wells at 320 nm, the fluorescence signal at 620 nm is collected for 400 ms following a 50 µs delay on a RUBYstar HTRF plate reader (BMG Labtechnologies). Raw RFU data is normalized to maximum (1.0 nM BACE/DMSO) and minimum (no enzyme/DMSO) RFU values. […] The Ki values are calculated from the IC50 using the Cheng-Prusoff equation.

Sequence of soluble human BACE1 catalytic domain (P56817 75-416 limits assumed): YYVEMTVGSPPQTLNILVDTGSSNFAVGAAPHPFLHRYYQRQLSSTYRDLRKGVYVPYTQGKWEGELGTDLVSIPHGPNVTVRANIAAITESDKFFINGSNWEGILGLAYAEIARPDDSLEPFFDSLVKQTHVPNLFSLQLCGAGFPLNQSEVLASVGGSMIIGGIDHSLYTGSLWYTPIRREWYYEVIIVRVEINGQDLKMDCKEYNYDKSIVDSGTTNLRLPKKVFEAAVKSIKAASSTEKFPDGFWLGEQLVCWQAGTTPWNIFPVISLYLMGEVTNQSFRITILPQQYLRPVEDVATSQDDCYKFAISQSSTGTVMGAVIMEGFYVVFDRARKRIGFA

SMILES | Ki [1] [nM] | Ki [2] [nM]
CN1C(=N)N[C@](C)(c2cc(NC(=O)c3ccc(F)cn3)ccc2F)[C@]2(CCN(Cc3ccccn3)C2)S1(=O)=O [Example 41] | 3 | 6
CCS(=O)(=O)N1CC[C@]2(C1)[C@@](C)(c1cc(NC(=O)c3ccc(OC)cn3)ccc1F)NC(=N)N(C)S2(=O)=O [Example 69] | 33 | 157
CN1C(=N)N[C@](C)(c2cc(NC(=O)c3ccc(F)cn3)ccc2F)[C@@]2(CCN(S(=O)(=O)Cc3cccnc3)C2)S1(=O)=O [Example 93] | 28 | 20
COc1ccc(C(=O)Nc2ccc(F)c([C@@]3(C)NC(=N)N(C)S(=O)(=O)[C@@]34CCN(S(C)(=O)=O)C4)c2)nc1 [Example 55] | 3 | 10
COc1ccc(C(=O)Nc2ccc(F)c([C@@]3(C)NC(=N)N(C)S(=O)(=O)[C@]34CCN(S(=O)(=O)C3CC3)C4)c2)nc1 [Example 64] | 40 | 140
CN1C(=N)N[C@](C)(c2cc(NC(=O)c3ccc(F)cn3)ccc2F)[C@]2(CCN(S(=O)(=O)c3ccccc3)C2)S1(=O)=O [Example 78] | 2 | 7
CN1C(=N)N[C@](C)(c2cc(NC(=O)c3ccc(F)cn3)ccc2F)[C@]2(CCN(S(=O)(=O)C3CC3)C2)S1(=O)=O [Example 79] | 1 | 2
COc1ccc(C(=O)Nc2ccc(F)c([C@@]3(C)NC(=N)N(C)S(=O)(=O)[C@@]34CCN(S(=O)(=O)CC(C)C)C4)c2)nc1 [Example 57] | 1 | 5
COc1ccc(C(=O)Nc2ccc(F)c([C@@]3(C)NC(=N)N(C)S(=O)(=O)[C@]34CCN(S(=O)(=O)c3cn(C)cn3)C4)c2)nc1 [Example 65] | 29 | 68
CN1C(=N)N[C@](C)(c2cc(NC(=O)c3ccc(F)cn3)ccc2F)[C@@]2(CCN(Cc3cncnc3)C2)S1(=O)=O [Example 50] | 70 | 77
COC1CC(CN2CC[C@]3(C2)[C@@](C)(c2cc(NC(=O)c4ccc(F)cn4)ccc2F)NC(=N)N(C)S3(=O)=O)C1 (stereo partly drawn) [Example 44] | 120 | 52
COc1ccc(C(=O)Nc2ccc(F)c([C@@]3(C)NC(=N)N(C)S(=O)(=O)[C@]34CCN(Cc3ccccn3)C4)c2)nc1 [Example 22] | 26 | 79
COCC(=O)Nc1ccc(F)c([C@@]2(C)NC(=N)N(C)S(=O)(=O)[C@@]23CCNC3)c1 [Example 97] | 1040 | 782
CN1C(=N)N[C@](C)(c2cc(NC(=O)c3ccc(F)cn3)ccc2F)[C@]2(CCN(S(=O)(=O)c3cn[nH]c3)C2)S1(=O)=O [Example 83] | 5 | 11
CN1C(=N)N[C@](C)(c2cc(NC(=O)c3ccc(F)cn3)ccc2F)[C@@]2(CCN(CC3CC3)C2)S1(=O)=O [Example 47] | 58 | 51
CN1C(=N)N[C@](C)(c2cc(NC(=O)c3ccc(F)cn3)ccc2F)C2(CCNC2)S1(=O)=O (stereo partly drawn) [Example 2] | 19.5 | 30
CN1C(=N)N[C@](C)(c2cc(NC(=O)c3ccc(F)cn3)ccc2F)C2(CCN(S(C)(=O)=O)C2)S1(=O)=O (stereo partly drawn) [Example 3] | 5 | 9
COc1ccc(C(=O)Nc2ccc(F)c([C@@]3(C)NC(=N)N(C)S(=O)(=O)[C@]34CCN(S(C)(=O)=O)C4)c2)nc1 [Example 68] | 35 | 205
CN1C(=N)N[C@](C)(c2cc(NC(=O)c3ccc(F)cn3)ccc2F)[C@@]2(CCN(Cc3cscn3)C2)S1(=O)=O [Example 42] | 32 | 25
COc1ccc(C(=O)Nc2ccc(F)c([C@@]3(C)NC(=N)N(C)S(=O)(=O)[C@]34CCN(CC3CC(OC)C3)C4)c2)nc1 (stereo partly drawn) [Example 21] | 91 | 201
COc1ccc(C(=O)Nc2ccc(F)c([C@@]3(C)NC(=N)N(C)S(=O)(=O)[C@@]34CCN(S(=O)(=O)C3CC3)C4)c2)nc1 [Example 60] | 1 | 4

SMILES | Ki [1] [nM] | Ki [2] [nM]
CCS(=O)(=O)N1CC[C@@]2(C1)[C@@](C)(c1cc(NC(=O)c3ccc(OC)cn3)ccc1F)NC(=N)N(C)S2(=O)=O [Example 56] | 1 | 6
COc1ccc(C(=O)Nc2ccc(F)c([C@@]3(C)NC(=N)N(C)S(=O)(=O)[C@]34CCN(CC3CCOC3)C4)c2)nc1 (stereo partly drawn) [Example 20] | 51 | 188
CN1C(=N)N[C@](C)(c2cc(NC(=O)c3ccc(F)cn3)ccc2F)[C@]2(CCN(S(C)(=O)=O)C2)S1(=O)=O [Example 75] | 4 | 7
COc1ccc(C(=O)Nc2ccc(F)c([C@@]3(C)NC(=N)N(C)S(=O)(=O)[C@]34CCN(Cc3cnn(C)c3)C4)c2)nc1 [Example 27] | 54 | 388
CN1C(=N)N[C@](C)(c2cc(NC(=O)c3ccc(F)cn3)ccc2F)[C@@]2(CCN(Cc3cnco3)C2)S1(=O)=O [Example 54] | 54 | 74
COc1ccc(C(=O)Nc2ccc(F)c([C@@]3(C)NC(=N)N(C)S(=O)(=O)[C@]34CCN(S(=O)(=O)c3cn[nH]c3)C4)c2)nc1 [Example 67] | 20 | 40
CC(C)CS(=O)(=O)N1CC[C@@]2(C1)[C@@](C)(c1cc(NC(=O)c3ccc(F)cn3)ccc1F)NC(=N)N(C)S2(=O)=O [Example 77] | 2 | 3
CN1C(=N)N[C@](C)(c2cc(NC(=O)c3ccc(F)cn3)ccc2F)C2(CCN(C(=O)CC3CC3)C2)S1(=O)=O (stereo partly drawn) [Example 6] | 2.7 | 5.2
CN1C(=N)N[C@](C)(c2cc(NC(=O)c3ccc(F)cn3)ccc2F)[C@@]2(CCN(Cc3ccncc3)C2)S1(=O)=O [Example 53] | 84 | 61
CN1C(=N)N[C@](C)(c2cc(NC(=O)c3ccc(F)cn3)ccc2F)[C@@]2(CCN(S(C)(=O)=O)C2)S1(=O)=O [Example 88] | 34 | 54
CN1C(=N)N[C@](C)(c2cc(NC(=O)c3ccc(F)cn3)ccc2F)[C@]2(CCN(S(=O)(=O)c3cn(C)cn3)C2)S1(=O)=O [Example 81] | 8 | 24
CN1C(=N)N[C@](C)(c2cc(NC(=O)c3ccc(F)cn3)ccc2F)[C@@]2(CCN(S(=O)(=O)c3cn(C)cn3)C2)S1(=O)=O [Example 94] | 37 | 19
CN1C(=N)N[C@](C)(c2cc(NC(=O)c3ccc(F)cn3)ccc2F)C2(CCN(C(=O)C3CC3)C2)S1(=O)=O (stereo partly drawn) [Example 5] | 2 | 3.1
CN1C(=N)N[C@](C)(c2cc(NC(=O)c3ccc(F)cn3)ccc2F)[C@@]2(CCN(S(=O)(=O)C3CCCC3)C2)S1(=O)=O [Example 85] | 41 | 37
COc1ccc(C(=O)Nc2ccc(F)c([C@@]3(C)NC(=N)N(C)S(=O)(=O)[C@]34CCN(S(=O)(=O)CC3CCCO3)C4)c2)nc1 (stereo partly drawn) [Example 66] | 32 | 87
COc1ccc(C(=O)Nc2ccc(F)c([C@@]3(C)NC(=N)N(C)S(=O)(=O)[C@]34CCN(S(=O)(=O)c3ccc(F)cc3)C4)c2)nc1 [Example 71] | 24 | 30
COc1ccc(C(=O)Nc2ccc(F)c([C@@]3(C)NC(=N)N(C)S(=O)(=O)[C@@]34CCN(S(=O)(=O)CC3CCCO3)C4)c2)nc1 (stereo partly drawn) [Example 62] | 3 | 19
COc1ccc(C(=O)Nc2ccc(F)c([C@@]3(C)NC(=N)N(C)S(=O)(=O)[C@]34CCN(S(=O)(=O)CC(C)C)C4)c2)nc1 [Example 70] | 37 | 100
CN1C(=N)N[C@](C)(c2cc(NC(=O)c3ccc(F)cn3)ccc2F)[C@]2(CCN(S(=O)(=O)Cc3cccnc3)C2)S1(=O)=O [Example 80] | 2 | 5
COc1ccc(C(=O)Nc2ccc(F)c([C@@]3(C)NC(=N)N(C)S(=O)(=O)[C@]34CCN(Cc3cccnc3)C4)c2)nc1 [Example 23] | 30 | 142
CN1C(=N)N[C@](C)(c2cc(NC(=O)c3ccc(F)cn3)ccc2F)[C@@]2(CCN(Cc3ccccn3)C2)S1(=O)=O [Example 45] | 33 | 23

Reference: EP2934149B1, “C6-AZASPIRO IMINOTHIADIAZINE DIOXIDES AS BACE INHIBITORS” (Merck Sharp & Dohme Corp., priority 2012, dated 2014)
